Measurements as given in US20260184663A1, “INDENE COMPOUNDS, PHARMACEUTICAL COMPOSITIONS THEREOF, AND THEIR THERAPEUTIC APPLICATIONS” (NucMito Pharmaceuticals co. Ltd., priority 2022, published 2026).

Assays:
Type in all cases: cell-based
[1] = test system: MDA-MB-231 (breast cancer); test: Antiproliferative activity (CCK-8 cell viability), MDA-MB-231; settings: Homo sapiens, 72 h; for inhibition at 3.3 µM: Compound concentration: 3.3 μM; for inhibition at 3.3 µM / inhibition at 10 µM: read-out: Antiproliferative activity in cancerous cells, MDA-MB-231 (inhibition of cell growth); for inhibition at 10 µM: Compound concentration: 10 μM
Procedure, shortened: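 In this CCK-8 viability assay, MDA-MB-231 cells maintained in Dulbecco's modified Eagle's medium containing 10% fetal bovine serum were placed in 96-well plates (2,000-5,000 cells/well) and treated with compound for 72 h at 37° C. A 4 h incubation with 10 μL CCK-8 followed, plates were read at 450 nm, and viability was expressed against DMSO vehicle wells across replicates.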

[2] = test system: A549 (lung adenocarcinoma); test: Antiproliferative activity (CCK-8 cell viability), A549; settings: Homo sapiens, 72 h, read-out: Antiproliferative activity in cancerous cells, A549 (inhibition of cell growth); for inhibition at 3.3 µM: Compound concentration: 3.3 μM; for inhibition at 10 µM: Compound concentration: 10 μM
Procedure, shortened: (§1)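 Cells were seeded at 2,000-5,000/well (HeLa in MEM, HepG2 and SW480 in DMEM, A549 in F-12K, all with 10% FBS) and treated with compound at 3.3, 10 or 30 μM for 72 h at 37° C. CCK-8 was added for 4 h, absorbance was read at 450 nm, and viability was expressed relative to DMSO-treated wells.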

[3] = test system: B16F10 (malignant melanoma); test: Antiproliferative activity (CCK-8 cell viability), B16F10; settings: Mus musculus, 72 h, read-out: Antiproliferative activity in cancerous cells, B16F10 (inhibition of cell growth); for inhibition at 3.3 µM: B16-F10, Compound concentration: 3.3 μM; for inhibition at 10 µM: B16-F10, Compound concentration: 10 μM
Procedure, shortened: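 Attached B16F10 cells in 96-well plates were incubated with compound at 37° C for 72 h, followed by 10 μL CCK-8 reagent per well and a further 4 h incubation. A multi-well plate reader measured absorbance at 450 nm. Percent viability across replicates was calculated against DMSO vehicle-treated cells.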

HeLa (cervical cancer) = test: Antiproliferative activity (CCK-8 cell viability), HeLa; settings: Homo sapiens, 72 h, read-out: Antiproliferative activity in cancerous cells, HELA (inhibition of cell growth); for inhibition at 3.3 µM: Compound concentration: 3.3 μM; for inhibition at 10 µM: Compound concentration: 10 μM
Procedure, shortened: as §1

HepG2 (liver cancer) = test: Antiproliferative activity (CCK-8 cell viability), HepG2; settings: Homo sapiens, 72 h, read-out: Antiproliferative activity in cancerous cells, HepG2 (inhibition of cell growth); for inhibition at 3.3 µM: Compound concentration: 3.3 μM; for inhibition at 10 µM: Compound concentration: 10 μM
Procedure, shortened: as §1

SW480 (colon cancer) = test: Antiproliferative activity (CCK-8 cell viability), SW480; settings: Homo sapiens, 72 h; for inhibition at 3.3 µM: Compound concentration: 3.3 μM; for inhibition at 3.3 µM / inhibition at 10 µM: read-out: Antiproliferative activity in cancerous cells, SW480 (inhibition of cell growth); for inhibition at 10 µM: Compound concentration: 10 μM
Procedure, shortened: as §1

[4] = test system: A431 (epidermoid carcinoma); test: Antiproliferative activity (CCK-8 cell viability), A431; settings: Homo sapiens, 72 h, read-out: Antiproliferative activity in cancerous cells, A431 (inhibition of cell growth); for inhibition at 3.3 µM: A-431, Compound concentration: 3.3 μM; for inhibition at 10 µM: A-431, Compound concentration: 10 μM
Procedure, shortened: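 Cell viability of compound-treated A431 cells was measured with a Cell Counting Kit-8. Each well received 10 μL of CCK-8 after 72 h of compound exposure, followed by 4 h incubation at 37° C. and a 450 nm plate-reader measurement. Percent viability was calculated relative to DMSO controls across replicates.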

| SMILES | inhibition at 3.3 µM [1] [%] | inhibition at 10 µM [1] [%] | inhibition at 3.3 µM [2] [%] | inhibition at 10 µM [2] [%] | inhibition at 3.3 µM [3] [%] | inhibition at 10 µM [3] [%] | inhibition at 3.3 µM (HeLa (cervical cancer)) [%] | inhibition at 10 µM (HeLa (cervical cancer)) [%] | inhibition at 3.3 µM (HepG2 (liver cancer)) [%] | inhibition at 10 µM (HepG2 (liver cancer)) [%] | inhibition at 3.3 µM (SW480 (colon cancer)) [%] | inhibition at 10 µM (SW480 (colon cancer)) [%] | inhibition at 3.3 µM [4] [%] | inhibition at 10 µM [4] [%] | inhibition at 30 µM (SW480 (colon cancer); Compound concentration: 30 μM, read-out: Antiproliferative activity in cancerous cells, SW480) [%] | inhibition at 30 µM ([1]; Compound concentration: 30 μM, read-out: Antiproliferative activity in cancerous cells, MDA-MB-231) [%] |
| --- | --- | --- | --- | --- | --- | --- | --- | --- | --- | --- | --- | --- | --- | --- | --- | --- |
| CC1=C(CC(=O)O)c2cc(Cl)ccc2/C1=C\c1ccc(CCCc2ccc(F)cc2)cc1 [B125, (Z)-2-(5-Chloro-1-(4-(3-(4-fluorophenyl)propyl)benzylidene)-2-methyl-1H-inden-3-yl)acetic acid] | 30 to 50 | ≥ 50 | < 30 | ≥ 50 | ≥ 50 | ≥ 50 | ≥ 50 | ≥ 50 | ≥ 50 | ≥ 50 | < 30 | ≥ 50 | ≥ 50 | ≥ 50 | – | – |
| COc1ccc(CCCc2ccc(/C=C3/C(C)=C(CC(=O)O)c4cc(F)ccc43)cc2)cc1 [B126, (Z)-2-(5-Fluoro-1-(4-(3-(4-methoxyphenyl)propyl)benzylidene)-2-methyl-1H-inden-3-yl)acetic acid] | ≥ 50 | ≥ 50 | < 30 | ≥ 50 | < 30 | ≥ 50 | 30 to 50 | ≥ 50 | 30 to 50 | ≥ 50 | < 30 | ≥ 50 | < 30 | ≥ 50 | – | – |
| COc1ccc(CCCc2ccc(/C=C3/C(C)=C(CC(=O)O)c4cc(Cl)ccc43)cc2)cc1 [B127, (Z)-2-(5-Chloro-1-(4-(3-(4-methoxyphenyl)propyl)benzylidene)-2-methyl-1H-inden-3-yl)acetic acid] | ≥ 50 | ≥ 50 | ≥ 50 | ≥ 50 | ≥ 50 | ≥ 50 | ≥ 50 | ≥ 50 | ≥ 50 | ≥ 50 | < 30 | ≥ 50 | ≥ 50 | ≥ 50 | – | – |
| COc1ccc(CCCc2ccc(/C=C3/C(C)=C(CC(=O)O)c4cc(Br)ccc43)cc2)cc1 [B128, (Z)-2-(5-Bromo-1-(4-(3-(4-methoxyphenyl)propyl)benzylidene)-2-methyl-1H-inden-3-yl)acetic acid] | ≥ 50 | ≥ 50 | ≥ 50 | ≥ 50 | ≥ 50 | ≥ 50 | ≥ 50 | ≥ 50 | ≥ 50 | ≥ 50 | ≥ 50 | ≥ 50 | ≥ 50 | ≥ 50 | – | – |
| CC1=C(CC(=O)O)c2cc(F)ccc2/C1=C\c1ccc(CCCc2ccc(O)cc2)cc1 [B129, (Z)-2-(5-Fluoro-1-(4-(3-(4-hydroxyphenyl)propyl)benzylidene)-2-methyl-1H-inden-3-yl)acetic acid] | ≥ 50 | ≥ 50 | 30 to 50 | ≥ 50 | ≥ 50 | ≥ 50 | < 30 | ≥ 50 | < 30 | ≥ 50 | < 30 | < 30 | < 30 | ≥ 50 | – | – |
| CC1=C(CC(=O)O)c2cc(F)ccc2/C1=C\c1ccc(CCc2ccc(F)cc2)cc1 [B145, (Z)-2-(5-Fluoro-1-(4-(4-fluorophenethyl)benzylidene)-2-methyl-1H-inden-3-yl)acetic acid] | < 30 | < 30 | < 30 | < 30 | < 30 | < 30 | 30 to 50 | ≥ 50 | < 30 | ≥ 50 | < 30 | < 30 | ≥ 50 | ≥ 50 | 30 to 50 | – |
| CC1=C(CC(=O)O)c2cc(C)ccc2/C1=C\c1ccc(CCc2ccccc2)cc1 [B147, (Z)-2-(2,5-Dimethyl-1-(4-phenethylbenzylidene)-1H-inden-3-yl)acetic acid] | < 30 | < 30 | < 30 | ≥ 50 | < 30 | ≥ 50 | < 30 | ≥ 50 | < 30 | ≥ 50 | < 30 | ≥ 50 | ≥ 50 | ≥ 50 | – | 30 to 50 |
| CC1=C(CC(=O)O)c2cc(Cl)ccc2/C1=C\c1ccc(COCc2ccc(F)cc2)cc1 [B148, (Z)-2-(5-Chloro-1-(4-(((4-fluorobenzyl)oxy)methyl)benzylidene)-2-methyl-1H-inden-3-yl)acetic acid] | 30 to 50 | 30 to 50 | 30 to 50 | ≥ 50 | < 30 | < 30 | 30 to 50 | ≥ 50 | < 30 | ≥ 50 | ≥ 50 | ≥ 50 | ≥ 50 | ≥ 50 | – | – |
| CC1=C(CC(=O)O)c2cc(C)ccc2/C1=C\c1ccc(COCc2ccc(Cl)cc2)cc1 [B149, (Z)-2-(1-(4-(((4-Chlorobenzyl)oxy)methyl)benzylidene)-2,5-dimethyl-1H-inden-3-yl)acetic acid] | < 30 | 30 to 50 | 30 to 50 | ≥ 50 | < 30 | < 30 | < 30 | ≥ 50 | < 30 | ≥ 50 | < 30 | 30 to 50 | ≥ 50 | ≥ 50 | – | – |
| CC1=C(CC(=O)O)c2cc(F)ccc2/C1=C\c1ccc(COCc2ccc(C(C)C)cc2)cc1 [B150, (Z)-2-(5-Fluoro-1-(4-(((4-isopropylbenzyl)oxy)methyl)benzylidene)-2-methyl-1H-inden-3-yl)acetic acid] | 30 to 50 | ≥ 50 | 30 to 50 | ≥ 50 | < 30 | ≥ 50 | 30 to 50 | ≥ 50 | < 30 | ≥ 50 | 30 to 50 | ≥ 50 | ≥ 50 | ≥ 50 | – | – |
